From ChEMBL document CHEMBL1130737, “Inhibitors of acyl-CoA:cholesterol O-acyltransferase (ACAT) as hypocholesterolemic agents: synthesis and structure-activity relationships of novel series of sulfonamides, acylphosphonamides and acylphosphoramidates” (Bioorg Med Chem Lett, 1998)

Tests used:
[1] = biological target: T1, Acyl-CoA:cholesterol acyltransferase (Oryctolagus cuniculus, UniProt Q95214); experiment: In vitro inhibition of ACAT by incubation with [1-14C]oleolyl-CoA and intestinal microsomes isolated from cholesterol-fed rabbits.; design: species or system Intestine
T1 sequence (Q95214 whole entry): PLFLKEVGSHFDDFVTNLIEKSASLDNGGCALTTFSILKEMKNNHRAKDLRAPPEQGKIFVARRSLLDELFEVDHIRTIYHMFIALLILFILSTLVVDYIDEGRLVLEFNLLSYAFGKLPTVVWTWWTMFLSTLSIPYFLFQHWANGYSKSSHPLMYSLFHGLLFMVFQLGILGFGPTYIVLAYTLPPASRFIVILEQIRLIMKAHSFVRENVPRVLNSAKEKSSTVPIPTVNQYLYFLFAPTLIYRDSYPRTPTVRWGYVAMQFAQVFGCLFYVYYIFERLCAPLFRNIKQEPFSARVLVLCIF

Rattus norvegicus [2] = experiment: In vivo percent change in plasma cholesterol level was measured at a dose of 30 mg/Kg in rat and expressed as deltaTC; not significant; format: functional
Rattus norvegicus [3] = experiment: In vivo percent change in plasma cholesterol level was measured at a dose of 30 mg/Kg in rat and expressed as deltaTC; p < 0.01; format: functional
Rattus norvegicus [4] = experiment: In vivo percent change in plasma cholesterol level was measured at a dose of 1 mg/Kg in rat and expressed as deltaTC; not significant; format: functional
Rattus norvegicus [5] = experiment: In vivo percent change in plasma cholesterol level was measured at a dose of 10 mg/Kg in rat and expressed as deltaTC; not significant; format: functional
Rattus norvegicus [6] = experiment: In vivo percent change in plasma cholesterol level was measured at a dose of 30 mg/Kg in rat and expressed as deltaTC; p < 0.05; format: functional
Rattus norvegicus [7] = experiment: In vivo percent change in plasma cholesterol level was measured at a dose of 1 mg/Kg in rat and expressed as deltaTC; p < 0.05; format: functional
Rattus norvegicus [8] = experiment: In vivo percent change in plasma cholesterol level was measured at a dose of 30 mg/Kg in rat and expressed as deltaTC; p < 0.001; format: functional

SMILES | IC50 [1] [nM] | DeltaTC (Rattus norvegicus [3]) [%] | also measured
CCCCCCCCOC(=O)CS(=O)(=O)Nc1c(C(C)C)cccc1C(C)C | > 1000 |  | DeltaTC (Rattus norvegicus [2]): -4%
COP(=O)(NC(=O)Cc1c(C(C)C)cc(C(C)C)cc1C(C)C)Oc1c(C(C)C)cccc1C(C)C (stereo not drawn) | 4800 |  | 
CC(C)c1cccc(C(C)C)c1OS(=O)(=O)CC(=O)NC(c1ccccc1)c1ccccc1 | 1800 | -43 | 
CC(C)c1cccc(C(C)C)c1NS(=O)(=O)CC(=O)Sc1c(C(C)C)cccc1C(C)C | > 50000 |  | DeltaTC (Rattus norvegicus [2]): -16%
CCOC(=O)CS(=O)(=O)Nc1c(C(C)C)cccc1C(C)C | > 1000 |  | DeltaTC (Rattus norvegicus [2]): 2%
CC(C)c1cccc(C(C)C)c1NS(=O)(=O)CC(=O)NCC1(c2ccccc2)CCCC1 | > 1000 |  | 
COP(=O)(NC(=O)Cc1c(C(C)C)cc(C(C)C)cc1C(C)C)Oc1c(C(C)C)cc(Cl)cc1C(C)C (stereo not drawn) | > 5000 |  | DeltaTC (Rattus norvegicus [4]): -12%
CC(C)c1cccc(C(C)C)c1NS(=O)(=O)CC(=O)Oc1c(C(C)C)cccc1C(C)C | > 1000 |  | 
COc1cc(OC)c(OC(=O)CS(=O)(=O)Nc2c(C(C)C)cccc2C(C)C)c(OC)c1 | > 1000 |  | DeltaTC (Rattus norvegicus [2]): -6%
CCCCCCCCCCSC(=O)CS(=O)(=O)Nc1c(C(C)C)cccc1C(C)C | 130 |  | 
CCCCCCCCCCCCCCOC(=O)CS(=O)(=O)Nc1c(C(C)C)cccc1C(C)C |  | -45 | 
COP(=O)(Cc1c(C(C)C)cccc1C(C)C)NC(=O)Cc1c(C(C)C)cc(C(C)C)cc1C(C)C (stereo not drawn) | 1200 |  | DeltaTC (Rattus norvegicus [5]): -2%
CCCCCCCCCCCCSC(=O)CS(=O)(=O)Nc1c(C(C)C)cccc1C(C)C | 73 | -71 | 
CCCCCCCCCCCCOC(=O)CS(=O)(=O)Nc1c(C(C)C)cccc1C(C)C |  | -34 | 
CCCCCCCCCCOC(=O)CS(=O)(=O)Nc1c(C(C)C)cccc1C(C)C | > 1000 |  | DeltaTC (Rattus norvegicus [6]): -16%
CCCCCCSC(=O)CS(=O)(=O)Nc1c(C(C)C)cccc1C(C)C | 1000 |  | 
CCCCCCCCCCCCNC(=O)CS(=O)(=O)Nc1c(C(C)C)cccc1C(C)C | 320 | -29 | 
CCCCCCCCCCCCCCCCCCSC(=O)CS(=O)(=O)Nc1c(C(C)C)cccc1C(C)C | > 5000 |  | DeltaTC (Rattus norvegicus [2]): -35%

SMILES | IC50 [1] [nM] | DeltaTC (Rattus norvegicus [3]) [%] | also measured
CCCCCCCCSC(=O)CS(=O)(=O)Nc1c(C(C)C)cccc1C(C)C | 150 |  | DeltaTC (Rattus norvegicus [6]): -32%
CC(C)c1cc(C(C)C)c(OS(=O)(=O)CC(=O)Nc2c(C(C)C)cccc2C(C)C)c(C(C)C)c1 | 7 | -60 | 
CC(C)c1cccc(C(C)C)c1OC(=O)[N-]S(=O)(=O)Oc1c(C(C)C)cccc1C(C)C.[Na+] | 5200 | -74 | 
CC(C)c1cc(C(C)C)c(CC(=O)NP(=O)(Oc2c(C(C)C)cccc2C(C)C)c2ccccc2)c(C(C)C)c1 (stereo not drawn) | 2500 |  | DeltaTC (Rattus norvegicus [7]): -25%
CCCCCCCCN(CCCCCCCC)C(=O)CS(=O)(=O)Nc1c(C(C)C)cccc1C(C)C |  |  | DeltaTC (Rattus norvegicus [2]): -19%
CC(C)c1cc(C(C)C)c(OC(=O)CS(=O)(=O)Nc2c(C(C)C)cccc2C(C)C)c(C(C)C)c1 | 2800 |  | DeltaTC (Rattus norvegicus [2]): -19%
CCCCCCCCCCCCC(C)OC(=O)CS(=O)(=O)Nc1c(C(C)C)cccc1C(C)C (stereo not drawn) | 21 |  | DeltaTC (Rattus norvegicus [8]): -39%
CCCCCCCCCCCCNC(=O)CS(=O)(=O)Oc1c(C(C)C)cccc1C(C)C | 3000 |  | DeltaTC (Rattus norvegicus [2]): -3%
COP(=O)(Cc1c(C(C)C)cc(C(C)C)cc1C(C)C)NC(=O)Cc1c(C(C)C)cccc1C(C)C (stereo not drawn) | 290 |  | 
CC(C)c1cccc(C(C)C)c1NC(=O)CS(=O)(=O)Oc1c(C(C)C)cccc1C(C)C | 7 | -42 | 
CC(C)c1cccc(C(C)C)c1NC(=O)CS(=O)(=O)Nc1c(C(C)C)cccc1C(C)C | 350 |  | DeltaTC (Rattus norvegicus [8]): -51%
COP(=O)(Cc1c(C(C)C)cc(C(C)C)cc1C(C)C)NC(=O)Cc1c(C(C)C)cc(C(C)C)cc1C(C)C (stereo not drawn) | 740 |  | DeltaTC (Rattus norvegicus [5]): -17%
CC(C)c1cc(C(C)C)c(NS(=O)(=O)CC(=O)Oc2c(C(C)C)cccc2C(C)C)c(C(C)C)c1 | > 1000 | -29 | 
CC(C)c1cc(C(C)C)c(CC(=O)NS(=O)(=O)Oc2c(C(C)C)cccc2C(C)C)c(C(C)C)c1 [AVASIMIBE] | 12000 | -73 | 
CCCCCCCCCCCCCCSC(=O)CS(=O)(=O)Nc1c(C(C)C)cccc1C(C)C | 36 | -23 | 
CC(C)c1cccc(C(C)C)c1NS(=O)(=O)CC(=O)N(Cc1ccccc1)C(C)C | 150 | -31 | 
CCCCCCNC(=O)CS(=O)(=O)Nc1c(C(C)C)cccc1C(C)C | > 5000 |  | DeltaTC (Rattus norvegicus [6]): -16%
CCCCCCOC(=O)CS(=O)(=O)Nc1c(C(C)C)cccc1C(C)C | > 1000 |  | DeltaTC (Rattus norvegicus [2]): -5%
